Data as given in PubChem BioAssay (NCI).
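A five-concentration, 48-hour dose response in 96-well plates underlies each endpoint, interpolated linearly between surrounding concentrations. The concentration for full growth arrest is given as TGI.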

Experiments:
Assay in all cases: DTP human tumour cell line panel, 48 h
OVCAR-4 ovarian = test system: OVCAR-4 ovarian
LXFL 529 NSCLC = test system: LXFL 529 NSCLC
OVCAR-8 ovarian = test system: OVCAR-8 ovarian
OVCAR-3 ovarian = test system: OVCAR-3 ovarian
SF-539 CNS = test system: SF-539 CNS
SN12C renal = test system: SN12C renal
UO-31 renal = test system: UO-31 renal
NCI-H460 lung = test system: NCI-H460 lung
KM20L2 colon = test system: KM20L2 colon
HCT-15 colon = test system: HCT-15 colon
M19-MEL melanoma = test system: M19-MEL melanoma
SF-295 CNS = test system: SF-295 CNS
U251 CNS = test system: U251 CNS
DMS 114 small cell lung = test system: DMS 114 small cell lung
786-0 renal = test system: 786-0 renal
NCI-H23 lung = test system: NCI-H23 lung
HCT-116 colon = test system: HCT-116 colon
DMS 273 small cell lung = test system: DMS 273 small cell lung
ACHN renal = test system: ACHN renal
LOX IMVI melanoma = test system: LOX IMVI melanoma
HT29 colon = test system: HT29 colon
TK-10 renal = test system: TK-10 renal
A498 renal = test system: A498 renal
SNB-75 CNS = test system: SNB-75 CNS
KM12 colon = test system: KM12 colon
CCRF-CEM leukemia = test system: CCRF-CEM leukemia
DLD-1 colon = test system: DLD-1 colon
SK-OV-3 ovarian = test system: SK-OV-3 ovarian
XF 498 CNS = test system: XF 498 CNS
SNB-19 CNS = test system: SNB-19 CNS
NCI-H522 lung = test system: NCI-H522 lung
COLO 205 colon = test system: COLO 205 colon
SR leukemia = test system: SR leukemia
A549 NSCLC = test system: A549 NSCLC
SK-MEL-5 melanoma = test system: SK-MEL-5 melanoma
HL-60(TB) leukemia = test system: HL-60(TB) leukemia
CAKI-1 renal = test system: CAKI-1 renal
HOP-92 NSCLC = test system: HOP-92 NSCLC
SK-MEL-2 melanoma = test system: SK-MEL-2 melanoma
M14 melanoma = test system: M14 melanoma
K-562 leukemia = test system: K-562 leukemia
SK-MEL-28 melanoma = test system: SK-MEL-28 melanoma
UACC-62 melanoma = test system: UACC-62 melanoma
NCI-H226 lung = test system: NCI-H226 lung
IGROV1 ovarian = test system: IGROV1 ovarian
SNB-78 CNS = test system: SNB-78 CNS
MOLT-4 leukemia = test system: MOLT-4 leukemia
OVCAR-5 ovarian = test system: OVCAR-5 ovarian
HCC-2998 colon = test system: HCC-2998 colon
HOP-18 NSCLC = test system: HOP-18 NSCLC
UACC-257 melanoma = test system: UACC-257 melanoma
SF-268 CNS = test system: SF-268 CNS
MALME-3M melanoma = test system: MALME-3M melanoma
RXF 393 renal = test system: RXF 393 renal
EKVX NSCLC = test system: EKVX NSCLC
HOP-62 NSCLC = test system: HOP-62 NSCLC
RXF-631 renal = test system: RXF-631 renal
RPMI-8226 leukemia = test system: RPMI-8226 leukemia
SW-620 colon = test system: SW-620 colon

CC#C[P+](c1ccccc1)(c1ccccc1)c1ccccc1 gave a TGI (OVCAR-4 ovarian) of 20.1 µM, a TGI (LXFL 529 NSCLC) of 12.6 µM and a TGI (OVCAR-8 ovarian) of 12 µM. For the same compound, the TGI (OVCAR-3 ovarian) was 14.3 µM, the TGI (SF-539 CNS) was 10.1 µM and the TGI (SN12C renal) was 4.13 µM. For the same compound, the TGI (UO-31 renal) was 76.4 µM, the TGI (NCI-H460 lung) was 19.2 µM and the TGI (KM20L2 colon) was 21.3 µM. For the same compound, the TGI (HCT-15 colon) was 35.8 µM, the TGI (M19-MEL melanoma) was 11.8 µM and the TGI (SF-295 CNS) was 9.15 µM. For the same compound, the TGI (U251 CNS) was 11.8 µM, the TGI (DMS 114 small cell lung) was 9.95 µM and the TGI (786-0 renal) was 10.7 µM. The TGI (NCI-H23 lung) was 7.03 µM, the TGI (HCT-116 colon) was 13.3 µM and the TGI (DMS 273 small cell lung) was 10.6 µM. It also gave a TGI (ACHN renal) of 21.8 µM, a TGI (LOX IMVI melanoma) of 6.75 µM and a TGI (HT29 colon) of 12.9 µM. The TGI (TK-10 renal) was 15.7 µM, the TGI (A498 renal) was greater than 100 µM and the TGI (SNB-75 CNS) was 12 µM. For the same compound, the TGI (KM12 colon) was 11.3 µM, the TGI (CCRF-CEM leukemia) was 3.57 µM and the TGI (DLD-1 colon) was 16.7 µM. For the same compound, the TGI (SK-OV-3 ovarian) was 38.5 µM, the TGI (XF 498 CNS) was 7.26 µM and the TGI (SNB-19 CNS) was 15 µM. The TGI (NCI-H522 lung) was 0.924 µM, the TGI (COLO 205 colon) was 2.77 µM and the TGI (SR leukemia) was 14.3 µM. The TGI (A549 NSCLC) was greater than 100 µM, the TGI (SK-MEL-5 melanoma) was 11.9 µM and the TGI (HL-60(TB) leukemia) was 13.9 µM. The TGI (CAKI-1 renal) was 11.3 µM, the TGI (HOP-92 NSCLC) was 5.42 µM and the TGI (SK-MEL-2 melanoma) was 5.75 µM. For the same compound, the TGI (M14 melanoma) was 5.78 µM, the TGI (K-562 leukemia) was 11.8 µM and the TGI (SK-MEL-28 melanoma) was 25 µM. The TGI (UACC-62 melanoma) was 14.8 µM, the TGI (NCI-H226 lung) was 14.2 µM and the TGI (IGROV1 ovarian) was 26.1 µM. It also gave a TGI (SNB-78 CNS) of 22.9 µM, a TGI (MOLT-4 leukemia) of 5.31 µM and a TGI (OVCAR-5 ovarian) of 22 µM. It also gave a TGI (HCC-2998 colon) of 14.5 µM, a TGI (HOP-18 NSCLC) of 25.4 µM and a TGI (UACC-257 melanoma) of 9.59 µM. For the same compound, the TGI (SF-268 CNS) was 8.44 µM, the TGI (MALME-3M melanoma) was 22.4 µM and the TGI (RXF 393 renal) was 18.9 µM. It also gave a TGI (EKVX NSCLC) of 22.5 µM and a TGI (HOP-62 NSCLC) of 17.4 µM.
COC(=O)[C@]1(C)CCCC2(C)C1CC[C@H]1C=C(C)[C@H]3CCC12C3 (some centres undefined) showed a TGI (OVCAR-4 ovarian) greater than 100 µM, a TGI (LXFL 529 NSCLC) greater than 100 µM and a TGI (OVCAR-8 ovarian) greater than 100 µM. The TGI (OVCAR-3 ovarian) was greater than 100 µM, the TGI (SF-539 CNS) was greater than 100 µM and the TGI (RXF-631 renal) was greater than 100 µM. The TGI (SN12C renal) was greater than 100 µM, the TGI (UO-31 renal) was greater than 100 µM and the TGI (NCI-H460 lung) was greater than 100 µM. For the same compound, the TGI (KM20L2 colon) was greater than 100 µM, the TGI (HCT-15 colon) was greater than 100 µM and the TGI (SF-295 CNS) was greater than 100 µM. For the same compound, the TGI (U251 CNS) was greater than 100 µM, the TGI (DMS 114 small cell lung) was greater than 100 µM and the TGI (786-0 renal) was greater than 100 µM. The TGI (NCI-H23 lung) was greater than 100 µM, the TGI (HCT-116 colon) was greater than 100 µM and the TGI (ACHN renal) was greater than 100 µM. The TGI (LOX IMVI melanoma) was greater than 100 µM, the TGI (HT29 colon) was greater than 100 µM and the TGI (TK-10 renal) was greater than 100 µM. For the same compound, the TGI (SNB-75 CNS) was greater than 100 µM, the TGI (KM12 colon) was greater than 100 µM and the TGI (CCRF-CEM leukemia) was greater than 100 µM. It also gave a TGI (DLD-1 colon) greater than 100 µM, a TGI (SK-OV-3 ovarian) greater than 100 µM and a TGI (XF 498 CNS) greater than 100 µM. For the same compound, the TGI (SNB-19 CNS) was greater than 100 µM, the TGI (RPMI-8226 leukemia) was greater than 100 µM and the TGI (NCI-H522 lung) was greater than 100 µM. For the same compound, the TGI (COLO 205 colon) was greater than 100 µM, the TGI (SR leukemia) was greater than 100 µM and the TGI (A549 NSCLC) was greater than 100 µM. For the same compound, the TGI (SK-MEL-5 melanoma) was greater than 100 µM, the TGI (HL-60(TB) leukemia) was greater than 100 µM and the TGI (CAKI-1 renal) was greater than 100 µM. It also gave a TGI (HOP-92 NSCLC) greater than 100 µM, a TGI (M14 melanoma) greater than 100 µM and a TGI (K-562 leukemia) greater than 100 µM. For the same compound, the TGI (SK-MEL-28 melanoma) was greater than 100 µM, the TGI (UACC-62 melanoma) was greater than 100 µM and the TGI (NCI-H226 lung) was greater than 100 µM. For the same compound, the TGI (IGROV1 ovarian) was greater than 100 µM, the TGI (SNB-78 CNS) was greater than 100 µM and the TGI (MOLT-4 leukemia) was greater than 100 µM. It also gave a TGI (SW-620 colon) greater than 100 µM, a TGI (OVCAR-5 ovarian) greater than 100 µM and a TGI (HCC-2998 colon) greater than 100 µM. It also gave a TGI (UACC-257 melanoma) greater than 100 µM, a TGI (SF-268 CNS) greater than 100 µM and a TGI (MALME-3M melanoma) greater than 100 µM. It also gave a TGI (RXF 393 renal) greater than 100 µM and a TGI (HOP-62 NSCLC) greater than 100 µM.
